Earlier results in patent US9682051B2, “Acyclovir and meloxicam combination therapy for functional somatic syndromes” (INNOVATIVE MED CONCEPTS, LLC, priority 2012, dated 2017).

Tested on: fibromyalgia patients
Conditions: valacyclovir alone

CC(C)[C@H](N)C(=O)OCCOCn1cnc2c(=O)[nH]c(N)nc21 [valacyclovir]
Outcome of treating fibromyalgia patients: not successful
